As a reminder, the IC50 is the concentration that gives 50% inhibition.

These results are taken from patent US12685735B2 (Foghorn Therapeutics Inc., priority 2020, dated 2026).

For one experiment, the target named is BRG-1 (Homo sapiens, UniProt P51532). Kind of experiment: ATPase catalytic activity assay of BRG-1 (ADP-Glo). Format: biochemical. The following applies: ATPase catalytic activity, ADP-Glo; for IC50: read-out: BRG1 IC50 (μM)*; for Emax: read-out: BRG1 Max % Inhibition. In a few lines:
(§1)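 In vitro biochemical ATPase assay; product ADP detected after removing leftover ATP and reconverting ADP to ATP for a luciferase signal.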

The next experiment concerns the target BRM (Homo sapiens, UniProt P51531). The experiment can be described thus: ATPase catalytic activity assay of BRM (ADP-Glo). Format: biochemical. The following applies: for IC50: read-out: BRM IC50 (μM)*. In short, it runs like this:
as §1

BRM, sequence (P51531 whole entry): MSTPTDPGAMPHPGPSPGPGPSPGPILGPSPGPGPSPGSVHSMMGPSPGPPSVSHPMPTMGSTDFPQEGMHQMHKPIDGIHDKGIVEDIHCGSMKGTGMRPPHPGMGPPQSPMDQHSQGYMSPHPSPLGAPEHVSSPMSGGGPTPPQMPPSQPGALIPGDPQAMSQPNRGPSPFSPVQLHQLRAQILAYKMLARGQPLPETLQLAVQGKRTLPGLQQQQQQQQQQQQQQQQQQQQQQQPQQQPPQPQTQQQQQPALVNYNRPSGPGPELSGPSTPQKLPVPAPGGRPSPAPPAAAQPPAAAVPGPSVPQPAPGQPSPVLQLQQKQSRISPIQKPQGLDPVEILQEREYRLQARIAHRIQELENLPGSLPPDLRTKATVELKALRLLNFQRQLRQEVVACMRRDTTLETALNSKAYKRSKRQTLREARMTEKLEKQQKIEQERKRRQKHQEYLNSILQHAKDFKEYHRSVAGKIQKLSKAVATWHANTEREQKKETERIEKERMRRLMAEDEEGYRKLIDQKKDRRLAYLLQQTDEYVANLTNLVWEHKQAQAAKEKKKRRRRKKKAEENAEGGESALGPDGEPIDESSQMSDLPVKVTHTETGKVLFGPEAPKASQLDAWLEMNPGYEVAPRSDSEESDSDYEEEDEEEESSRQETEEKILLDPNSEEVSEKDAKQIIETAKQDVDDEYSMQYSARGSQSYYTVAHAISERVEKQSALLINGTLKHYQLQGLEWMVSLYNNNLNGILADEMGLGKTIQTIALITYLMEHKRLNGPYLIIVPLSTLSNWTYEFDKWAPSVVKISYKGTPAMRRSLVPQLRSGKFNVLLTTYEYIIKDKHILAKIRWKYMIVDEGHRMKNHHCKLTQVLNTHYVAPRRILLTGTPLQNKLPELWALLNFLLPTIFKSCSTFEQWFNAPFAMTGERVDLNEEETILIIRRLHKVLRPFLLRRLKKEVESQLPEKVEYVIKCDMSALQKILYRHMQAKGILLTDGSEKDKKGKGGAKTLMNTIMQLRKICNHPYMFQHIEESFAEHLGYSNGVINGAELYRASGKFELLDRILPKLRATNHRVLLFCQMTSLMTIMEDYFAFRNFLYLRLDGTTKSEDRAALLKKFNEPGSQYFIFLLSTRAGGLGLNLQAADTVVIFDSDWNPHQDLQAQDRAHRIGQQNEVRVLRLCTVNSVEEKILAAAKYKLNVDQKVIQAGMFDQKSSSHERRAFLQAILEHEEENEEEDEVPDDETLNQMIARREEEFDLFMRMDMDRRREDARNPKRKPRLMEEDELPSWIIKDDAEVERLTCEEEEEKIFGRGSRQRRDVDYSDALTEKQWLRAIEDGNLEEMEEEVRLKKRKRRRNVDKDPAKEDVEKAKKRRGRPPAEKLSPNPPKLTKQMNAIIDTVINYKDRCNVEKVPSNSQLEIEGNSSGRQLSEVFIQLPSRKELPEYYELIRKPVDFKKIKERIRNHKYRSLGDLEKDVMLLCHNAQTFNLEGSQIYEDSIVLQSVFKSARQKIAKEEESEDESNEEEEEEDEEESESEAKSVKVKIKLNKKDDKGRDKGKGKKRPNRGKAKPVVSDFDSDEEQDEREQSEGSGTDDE
BRG-1, sequence (P51532 whole entry): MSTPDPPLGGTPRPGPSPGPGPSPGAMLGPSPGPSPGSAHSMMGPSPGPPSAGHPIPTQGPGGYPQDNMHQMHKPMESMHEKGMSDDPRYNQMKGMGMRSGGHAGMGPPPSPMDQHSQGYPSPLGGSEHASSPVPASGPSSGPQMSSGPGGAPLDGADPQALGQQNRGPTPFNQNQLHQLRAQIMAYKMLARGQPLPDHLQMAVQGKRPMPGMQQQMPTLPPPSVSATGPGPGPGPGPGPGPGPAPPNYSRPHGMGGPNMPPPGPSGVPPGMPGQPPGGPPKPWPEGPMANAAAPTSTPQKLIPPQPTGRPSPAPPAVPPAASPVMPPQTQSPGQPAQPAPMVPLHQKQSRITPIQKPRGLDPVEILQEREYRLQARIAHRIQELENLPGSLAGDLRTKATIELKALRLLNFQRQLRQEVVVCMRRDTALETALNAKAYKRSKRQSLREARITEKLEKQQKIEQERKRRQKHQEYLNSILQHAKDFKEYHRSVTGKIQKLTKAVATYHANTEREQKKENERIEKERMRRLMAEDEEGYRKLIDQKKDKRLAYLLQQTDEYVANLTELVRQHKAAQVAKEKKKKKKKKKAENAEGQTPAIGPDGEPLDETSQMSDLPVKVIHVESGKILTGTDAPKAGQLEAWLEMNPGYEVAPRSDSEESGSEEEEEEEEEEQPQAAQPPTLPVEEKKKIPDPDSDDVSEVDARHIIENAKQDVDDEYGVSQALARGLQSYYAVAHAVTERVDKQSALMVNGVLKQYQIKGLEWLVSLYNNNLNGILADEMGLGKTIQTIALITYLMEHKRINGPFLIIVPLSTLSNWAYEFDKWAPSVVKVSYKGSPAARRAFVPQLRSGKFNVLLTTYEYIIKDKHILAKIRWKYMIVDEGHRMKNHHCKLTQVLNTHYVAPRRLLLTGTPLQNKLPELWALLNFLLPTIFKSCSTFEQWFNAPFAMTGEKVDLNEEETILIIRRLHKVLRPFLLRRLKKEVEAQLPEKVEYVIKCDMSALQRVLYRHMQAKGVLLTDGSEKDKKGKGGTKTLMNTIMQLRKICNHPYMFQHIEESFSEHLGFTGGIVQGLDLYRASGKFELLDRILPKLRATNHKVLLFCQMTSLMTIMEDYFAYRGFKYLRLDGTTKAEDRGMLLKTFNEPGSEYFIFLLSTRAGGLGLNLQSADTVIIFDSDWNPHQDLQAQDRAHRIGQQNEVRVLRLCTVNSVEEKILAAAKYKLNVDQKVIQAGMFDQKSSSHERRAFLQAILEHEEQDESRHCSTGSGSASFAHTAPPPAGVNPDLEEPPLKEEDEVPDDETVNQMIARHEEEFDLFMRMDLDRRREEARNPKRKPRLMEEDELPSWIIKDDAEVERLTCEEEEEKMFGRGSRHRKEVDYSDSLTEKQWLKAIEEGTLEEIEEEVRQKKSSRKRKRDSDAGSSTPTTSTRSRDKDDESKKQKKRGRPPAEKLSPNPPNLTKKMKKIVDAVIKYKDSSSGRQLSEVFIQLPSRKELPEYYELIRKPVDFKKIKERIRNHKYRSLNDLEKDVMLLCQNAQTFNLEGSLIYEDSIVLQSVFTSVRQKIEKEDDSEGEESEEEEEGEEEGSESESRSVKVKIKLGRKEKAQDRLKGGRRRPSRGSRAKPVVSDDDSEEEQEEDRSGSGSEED

As to `Cc1cc(C(=O)NCC(=O)Nc2nc(-c3cccc(-c4ccncc4)c3)cs2)cc(C(C)(C)C#N)c1C` [Compound 75, 3-(2-cyanopropan-2-yl)-4,5-dimethyl-N-(2-oxo-2-((4-(3-(pyridin-4-yl)phenyl)thiazol-2-yl)amino)ethyl)benzamide], at BRG-1, the half-maximal inhibitory concentration (IC50) was above 5 µM and the Emax was below 30%. At BRM, the “BRM Max % Inhibition” value is listed as above 80% and the IC50 is 0.1 to 1 µM.
The matching figures for `CC1(C#N)CCc2ccc(C(=O)NCC(=O)Nc3nc(-c4cccc(-c5ccncc5)c4)cs3)cc21` (centres unmarked) [Compound 76, 3-cyano-3-methyl-N-(2-oxo-2-((4-(3-(pyridin-4-yl)phenyl)thiazol-2-yl)amino)ethyl)-2,3-dihydro-1H-indene-5-carboxamide]: below 0.1 µM, above 80%, above 95% and below 0.1 µM.
The matching figures for `CC(C)(O)c1cccc(C(=O)NCC(=O)Nc2nc(-c3cccc(-c4ccncc4)c3)cs2)c1` [Compound 77]: 0.1 to 1 µM, above 80%, above 90% and 0.1 to 1 µM.
In the case of `CC(O)(c1cccc(C(=O)NCC(=O)Nc2nc(-c3cccc(-c4ccncc4)c3)cs2)c1)C(F)(F)F` (centres unmarked) [Compound 78, N-(2-oxo-2-((4-(3-(pyridin-4-yl)phenyl)thiazol-2-yl)amino)ethyl)-3-(1,1,1-trifluoro-2-hydroxypropan-2-yl)benzamide], at BRG-1, the 50% inhibitory concentration (IC50) lay within 1 to 5 µM and the Emax is above 40%. At BRM, the “BRM Max % Inhibition” value was above 80% and the half-inhibitory concentration (IC50) lay in the range of 0.1 to 1 µM.
Consider `CCC(C)(O)c1cccc(C(=O)NCC(=O)Nc2nc(-c3cccc(-c4ccncc4)c3)cs2)c1` (centres unmarked) [Compound 79, 3-(2-hydroxybutan-2-yl)-N-(2-oxo-2-((4-(3-(pyridin-4-yl)phenyl)thiazol-2-yl)amino)ethyl)benzamide], for which, on BRG-1, the half-maximal inhibitory concentration (IC50) lay in the range of 0.1 to 1 µM and the Emax was above 50%. Besides, on BRM, the “BRM Max % Inhibition” value is above 70% and the IC50 lay in the range of 0.1 to 1 µM.
As to `CC1(c2cccc(C(=O)NCC(=O)Nc3nc(-c4cccc(-c5ccncc5)c4)cs3)c2)CCNC1=O` (centres unmarked) [Compound 82, 3-(3-methyl-2-oxopyrrolidin-3-yl)-N-(2-oxo-2-((4-(3-(pyridin-4-yl)phenyl)thiazol-2-yl)amino)ethyl)benzamide], at BRG-1, the IC50 lay in the range of 0.1 to 1 µM and the Emax was above 90%. Also, at BRM, the “BRM Max % Inhibition” value is above 95% and the IC50 is 0.1 to 1 µM.
For `CC(C)(/C(N)=N\O)c1cccc(C(=O)NCC(=O)Nc2nc(-c3cccc(-c4ccncc4)c3)cs2)c1` [Compound 83, (E)-3-(1-amino-1-(hydroxyimino)-2-methylpropan-2-yl)-N-(2-oxo-2-((4-(3-(pyridin-4-yl)phenyl)thiazol-2-yl)amino)ethyl)benzamide], on BRG-1, the IC50 was above 5 µM and the Emax was above 50%. Also, at BRM, the “BRM Max % Inhibition” value is above 90% and the half-maximal inhibitory concentration (IC50) lay in the range of 1 to 5 µM.
As to `CC(C)(C(N)=O)c1cccc(C(=O)NCC(=O)Nc2nc(-c3cccc(-c4ccncc4)c3)cs2)c1` [Compound 84, 3-(1-amino-2-methyl-1-oxopropan-2-yl)-N-(2-oxo-2-((4-(3-(pyridin-4-yl)phenyl)thiazol-2-yl)amino)ethyl)benzamide], on BRG-1, the half-inhibitory concentration (IC50) fell in the range of 1 to 5 µM and the Emax is above 90%. In addition, on BRM, the “BRM Max % Inhibition” value is listed as above 95% and the IC50 fell in the range of 0.1 to 1 µM.
The matching figures for `CSCC[C@H](NC(=O)c1ccc2c(c1)C(C)(O)C(=O)N2)C(=O)Nc1nc(-c2ccccc2)cs1` (stereo partly drawn) [Compound 85, 3-hydroxy-3-methyl-N—((S)-4-(methylthio)-1-oxo-1-((4-phenylthiazol-2-yl)amino)butan-2-yl)-2-oxoindoline-5-carboxamide]: above 5 µM, above 60%, above 80% and above 5 µM.
For `CC(C)(N)c1cccc(C(=O)NCC(=O)Nc2nc(-c3cccc(-c4ccncc4)c3)cs2)c1` [Compound 86, 3-(2-aminopropan-2-yl)-N-(2-oxo-2-((4-(3-(pyridin-4-yl)phenyl)thiazol-2-yl)amino)ethyl)benzamide] the same measures were 1 to 5 µM, above 60%, above 80% and above 5 µM.
For `CC(C)(C#N)c1cccc(C(=O)NCC(=O)Nc2nc(-c3cccc(-c4ccncc4)c3)cs2)c1` [Compound 87, 3-(2-cyanopropan-2-yl)-N-(2-oxo-2-((4-(3-(pyridin-4-yl)phenyl)thiazol-2-yl)amino)ethyl)benzamide] the same measures were above 5 µM, below 30%, above 80% and 0.1 to 1 µM.
As to `Cc1cc(C)c(C(C)(C)CN)cc1C(=O)NCC(=O)Nc1nc(-c2cccc(-c3ccncc3)c2)cs1` [Compound 89], on BRG-1, the half-maximal inhibitory concentration (IC50) was above 5 µM and the Emax is above 30%. In addition, on BRM, the “BRM Max % Inhibition” value is on record as above 80% and the IC50 lay within 1 to 5 µM.
The matching figures for `Cc1cc(-c2cccc(-c3csc(NC(=O)CNC(=O)c4cccc(C(C)(C)C(C)C)c4)n3)c2)cc(C)n1` [Compound 90]: above 5 µM, below 30%, above 60% and 1 to 5 µM.
On to `C[C@H](N)C(C)(C)c1cccc(C(=O)NCC(=O)Nc2nc(-c3cccc(-c4ccncc4)c3)cs2)c1` [Compound 91], for which, at BRG-1, the IC50 is above 5 µM and the Emax is above 30%. Moreover, on BRM, the “BRM Max % Inhibition” value was above 50% and the half-inhibitory concentration (IC50) lay in the range of 1 to 5 µM.
`Cc1cc(-c2cccc(-c3csc(NC(=O)CNC(=O)c4ccc(C)c(C(C)(C)CN)c4)n3)c2)cc(C)n1` [Compound 92]: on BRG-1, the half-inhibitory concentration (IC50) was 0.1 to 1 µM and the Emax was above 95%. Also, on BRM, the “BRM Max % Inhibition” value is listed as above 95% and the IC50 is below 0.1 µM.
`Cc1cc(-c2cccc(-c3csc(NC(=O)CNC(=O)c4cccc(C(C)(C)CO)c4)n3)c2)nc(C)n1` [Compound 93]: on BRG-1, the IC50 was in the range of 0.1 to 1 µM and the Emax was above 90%. Further, on BRM, the “BRM Max % Inhibition” value is on record as above 95% and the 50% inhibitory concentration (IC50) is below 0.1 µM.
Regarding `Cc1cc(-c2cccc(-c3csc(NC(=O)CNC(=O)c4cccc(C(C)(C)CO)c4)n3)c2)nc(C)n1` [Compound 94], on BRG-1, the “BRG1 Max % Inhibition” value is above 95% and the IC50 was below 0.1 µM. Further, on BRM, the “BRM Max % Inhibition” value was above 95% and the IC50 was below 0.1 µM.
In the case of `Cc1nccc(-c2cccc(-c3csc(NC(=O)CNC(=O)c4cccc(C(C)(C)CN)c4)n3)c2)n1` [Compound 95], on BRG-1, the IC50 was 0.1 to 1 µM and the Emax was above 90%. For the same compound, at BRM, the “BRM Max % Inhibition” value is given as above 95% and the half-inhibitory concentration (IC50) is below 0.1 µM.
For `CC1(C(N)=O)CCc2ccc(C(=O)NCC(=O)Nc3nc(-c4cccc(-c5ccncc5)c4)cs3)cc21` (centres unmarked) [Compound 96], at BRG-1, the IC50 fell in the range of 1 to 5 µM and the Emax was above 90%. For the same compound, on BRM, the “BRM Max % Inhibition” value is on record as above 95% and the half-maximal inhibitory concentration (IC50) was in the range of 0.1 to 1 µM.
On to `Cc1cc(C(=O)NCC(=O)Nc2nc(-c3cccc(-c4ccncc4)c3)cs2)cc(C(C)(C)CN)c1C` [Compound 97], for which, at BRG-1, the IC50 is 1 to 5 µM and the Emax was above 70%. Also, on BRM, the “BRM Max % Inhibition” value is above 90% and the 50% inhibitory concentration (IC50) was in the range of 0.1 to 1 µM.
